Where a SMILES comes first, the peptide text is derived from it.
Assays:
[1] = test system: endothelial cells which have invaded the Matrigel; test: In vivo Matrigel angiogenesis model, substance used alone; parameters: species or system Swiss mice; details: day 7; for effect on angiogenesis when peptide used alone: peptide 1 μM alone in Matrigel; for increase in the number of endothelial cells by comparison with Matrigel used by itself: HARP 5 nM or FGF-2 10 nM in Matrigel
Method: (§1) FIG. 6 represents the inhibition by the HARP peptides 13-39 and 65-97 of the angiogenesis induced by HARP in an in vivo model. Three hundred microlitres of Matrigel® incubated with 5 nM of HARP in the presence or absence of the HARP peptides 13-39 and 65-97 used at a concentration of 1 μM are injected subcutaneously into a mouse. The control of the experiment is achieved using FGF-2. Seven days later the mice are sacrificed and the Matrigel® is removed. Sections having a thickness of 8 μM are produced. The sections are then stained with Trichrome from Gomori. The number of cells which have invaded the Matrigel® is quantified by image analysis with NIH software. The results represent the mean value of an analysis of 7 sections per mouse (n=4 mice/group). The bars represent the standard margins for error (**, p<0.01).
This experiment was carried out using an in vivo angiogenesis model in mice. This experimental model consists in injecting Matrigel® containing a substance to be analysed for its angiogenesis stimulating or inhibiting properties. Four Swiss mice (Janvier, Genest St Isle, France) per group are injected with 300 μl of Matrigel® previously incubated with either 5 nM of HARP, 1 μM of HARP peptide 13-39 or 65-97, or with a mixture of HARP (5 nM) and HARP peptides 13-39 or 65-97 (1 μM). The control of the specificity of the inhibition is carried out using another angiogenic factor, FGF-2, tested either by itself at a concentration of 10 nM or supplemented by the HARP peptides 13-39 or 65-97 used at a concentration of 1 μM.
The mice are sacrificed seven days after the injection of the Matrigel®. This latter is removed and frozen in liquid nitrogen. Sections 8 μM thick are then effected with a cryostat. The sections are then stained with Trichrome from Gomori. The number of endothelial cells which have invaded the Matrigel® is quantified by image analysis using NIH imaging software.

[2] = test system: angiogenesis induced by FGF-2; test: In vivo Matrigel angiogenesis model, angiogenesis induced by FGF-2 (specificity control); parameters: species or system Swiss mice; details: peptide 1 μM with FGF-2 10 nM in Matrigel; day 7
Method: as §1
(§2) This experiment was carried out using an in vivo angiogenesis model in mice. This experimental model consists in injecting Matrigel® containing a substance to be analysed for its angiogenesis stimulating or inhibiting properties. […]
(§3) The mice are sacrificed seven days after the injection of the Matrigel®. […] The number of endothelial cells which have invaded the Matrigel® is quantified by image analysis using NIH imaging software.

[3] = test system: angiogenesis induced by HARP; test: In vivo Matrigel angiogenesis model, angiogenesis induced by HARP; parameters: species or system Swiss mice; details: peptide 1 μM with HARP 5 nM in Matrigel, subcutaneous; day 7
Method: as §1, §2, §3

[4] = test system: NIH 3T3 cells stimulated by HARP; details: 24 h, 10 μM
Method: After 24 hours' incubation the cellular proliferation is estimated by measurement of the tritiated thymidine incorporated by the cells.
Fibroblast cells of type NIH 3T3 are cultured at a density of 3×10^4 cells per cm^2 in DMEM culture medium supplemented with 10% of foetal calf serum. […] After this period of incubation, 0.5 μCi of [methyl-^3H]thymidine is added and 6 hours afterwards the cells are fixed by a 10% solution of trichloroacetic acid. The radioactivity incorporated by the cells is then counted by liquid scintillation after having effected a cell lysis with a solution of sodium hydroxide at a concentration of 0.1 N.

[5] = Bernard-Pierrot et al 2002; cited from earlier work
[6] = test system: PC3 cells (line resulting from prostate cancer); test: Tumour growth after injection of PC3 cells into nude mice; assay type: in vivo; details: 5 mg/kg daily injection in the region of the tumour
Method: Two million PC3 cells are injected into groups of 5 nude mice treated or not by daily injection in the region of the tumour with PBS (control) or with the HARP peptide 111-136 at a concentration of 5 mg/kg. The tumour growth for each group of animals is evaluated by measurement of the size of the tumour on day 9, 13, 16, 20, 23 and 27.
The capacity of the peptide P111-136 (SEQ ID NO: 4) to inhibit tumour angiogenesis has been tested by inducing tumour growth by injection of PC3 cells into nude mice in the presence or absence of peptide P111-136. 2×10^6 PC3 cells are injected into groups of 5 nude mice (nude/nude, Laboratoire IFFA CREDO) treated or not by injection in the region of the tumour of 100 μl per day of a solution of PBS (control group) or by a solution of peptide P111-136 diluted in PBS at a concentration of 5 mg/kg. On day 9, 13, 16, 20, 23 and 27 the size of the tumour is measured with the aid of a calliper gauge. The results are presented in FIG. 3 and indicate that the HARP peptide 111-136 used at a dose of 5 mg per kg induces an inhibition of the growth of the tumours.

[7] = test system: endothelial cells in the tumour (PC3); test: Tumour angiogenesis in PC3 tumours of nude mice (isolectin B4 staining of endothelial cells, image analysis); assay type: in vivo; details: day 27; 5 mg/kg daily injection in the region of the tumour
Method: Two million PC3 cells are injected into groups of mice treated or not by daily injection in the region of the tumour with PBS (control) or with the peptide 111-136 at a concentration of 5 mg/kg. The mice are sacrificed on day 27. The quantification of the angiogenesis is effected on a section after immunohistological analysis using isolectine Bandeiraea Simplicifolia as a specific marker of the endothelial cells and image analysis. The values presented in the histogram represent the mean value obtained by analysing three independent sections resulting from each of six tumours obtained in each condition.
On day 27, the tumours are removed and freezing sections of 5 μm are produced. […] This lectin is then detected by immunomarking with the aid of a sandwich of specific antibodies marked with alkaline phosphatase. After incubation with a substrate of alkaline phosphatase (Vector Red substrate), the endothelial cells are stained red. The quantification of the number of endothelial cells in the tumour is carried out by image analysis (NIH image) by analysing the 6 tumours on 3 independent sections of one and the same tumour.

[8] = target: anaplastic lymphoma kinase (ALK) (Homo sapiens, UniProt Q9UM73); details: high affinity tyrosine kinase receptor; Stoica et al, 2001; cited from earlier work
Chain of anaplastic lymphoma kinase (ALK) (Q9UM73 19-1620, species assumed): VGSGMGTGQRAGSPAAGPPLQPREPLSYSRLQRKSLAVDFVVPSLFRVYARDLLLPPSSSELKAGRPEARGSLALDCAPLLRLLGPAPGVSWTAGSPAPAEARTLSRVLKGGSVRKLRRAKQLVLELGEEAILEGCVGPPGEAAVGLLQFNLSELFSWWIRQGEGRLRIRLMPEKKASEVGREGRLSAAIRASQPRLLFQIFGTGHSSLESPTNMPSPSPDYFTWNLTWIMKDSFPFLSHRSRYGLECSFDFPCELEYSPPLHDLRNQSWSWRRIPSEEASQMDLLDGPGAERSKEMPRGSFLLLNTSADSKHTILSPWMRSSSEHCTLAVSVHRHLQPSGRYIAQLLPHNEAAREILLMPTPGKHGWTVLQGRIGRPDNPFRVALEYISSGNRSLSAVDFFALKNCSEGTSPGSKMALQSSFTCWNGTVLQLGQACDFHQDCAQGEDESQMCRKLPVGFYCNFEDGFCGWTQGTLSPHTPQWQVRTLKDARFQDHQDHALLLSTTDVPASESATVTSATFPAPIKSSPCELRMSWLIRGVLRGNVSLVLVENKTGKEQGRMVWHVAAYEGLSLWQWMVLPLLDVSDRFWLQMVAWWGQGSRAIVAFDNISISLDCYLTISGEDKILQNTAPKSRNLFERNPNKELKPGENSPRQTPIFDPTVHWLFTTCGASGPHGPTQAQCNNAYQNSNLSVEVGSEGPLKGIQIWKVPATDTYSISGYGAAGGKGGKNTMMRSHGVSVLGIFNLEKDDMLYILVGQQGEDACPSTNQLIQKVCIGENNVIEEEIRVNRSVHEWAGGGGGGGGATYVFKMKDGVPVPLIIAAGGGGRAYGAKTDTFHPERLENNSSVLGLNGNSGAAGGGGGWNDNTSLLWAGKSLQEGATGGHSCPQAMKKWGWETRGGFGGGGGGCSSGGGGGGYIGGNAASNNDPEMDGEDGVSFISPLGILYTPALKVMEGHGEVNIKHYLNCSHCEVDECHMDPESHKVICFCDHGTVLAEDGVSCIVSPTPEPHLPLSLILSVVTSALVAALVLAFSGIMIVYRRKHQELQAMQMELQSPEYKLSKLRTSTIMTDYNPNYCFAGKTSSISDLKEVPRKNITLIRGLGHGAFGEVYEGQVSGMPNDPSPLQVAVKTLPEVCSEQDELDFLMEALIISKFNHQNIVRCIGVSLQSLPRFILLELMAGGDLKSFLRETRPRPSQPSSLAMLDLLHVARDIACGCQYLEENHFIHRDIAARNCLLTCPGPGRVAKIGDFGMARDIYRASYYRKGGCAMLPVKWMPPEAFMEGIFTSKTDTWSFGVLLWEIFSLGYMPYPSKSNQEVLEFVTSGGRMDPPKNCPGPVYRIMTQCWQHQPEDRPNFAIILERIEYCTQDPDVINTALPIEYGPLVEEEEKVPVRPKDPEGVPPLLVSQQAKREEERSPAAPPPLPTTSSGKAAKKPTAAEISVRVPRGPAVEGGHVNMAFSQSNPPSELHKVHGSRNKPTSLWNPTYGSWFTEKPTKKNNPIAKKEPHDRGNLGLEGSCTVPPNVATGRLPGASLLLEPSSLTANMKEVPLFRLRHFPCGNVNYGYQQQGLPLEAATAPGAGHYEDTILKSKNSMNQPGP

CC(C)C[C@H](NC(=O)[C@H](C)NC(=O)[C@H](CCCNC(=N)N)NC(=O)[C@H](CCCCN)NC(=O)[C@H](CC(C)C)NC(=O)[C@H](CO)NC(=O)CNC(=O)[C@@H](NC(=O)[C@H](CCCNC(=N)N)NC(=O)[C@@H](NC(=O)[C@H](CCCCN)NC(=O)[C@H](CC(C)C)NC(=O)[C@H](C)NC(=O)[C@@H](NC(=O)[C@H](CC(N)=O)NC(=O)[C@H](CC(C)C)NC(=O)[C@H](CC(=O)O)NC(=O)[C@H](CS)NC(=O)[C@H](CCC(=O)O)NC(=O)CNC(=O)[C@H](Cc1c[nH]c2ccccc12)NC(=O)[C@H](C)NC(=O)[C@H](CCC(N)=O)NC(=O)[C@H](Cc1ccccc1)NC(=O)[C@H](CCC(N)=O)NC(=O)[C@H](Cc1ccc(O)cc1)NC(=O)[C@H](CCCCN)NC(=O)[C@H](CS)NC(=O)[C@H](CCC(=O)O)NC(=O)[C@H](C)N)[C@@H](C)O)[C@@H](C)O)[C@@H](C)O)C(=O)N[C@@H](Cc1c[nH]cn1)C(=O)N[C@@H](CC(N)=O)C(=O)N[C@@H](C)C(=O)O [peptide 65-97] (H-AECKYQFQAWGECDLNTALKTRTGSLKRALHNA-OH; N-terminus and C-terminus assumed)
effect on angiogenesis when peptide used alone [1]: No significant effect | effect on angiogenesis induced by FGF-2 [2]: no effect | effect on angiogenesis induced by HARP [3]: totally inhibit

FGF-2: another angiogenic factor, used as control of the specificity of the inhibition
increase in the number of endothelial cells by comparison with Matrigel used by itself [1]: 5.8 times

CC(C)C[C@H](NC(=O)CNC(=O)[C@H](CS)NC(=O)[C@H](CC(=O)O)NC(=O)CNC(=O)[C@H](CO)NC(=O)[C@@H](NC(=O)[C@@H]1CCCN1C(=O)[C@@H](NC(=O)[C@H](CS)NC(=O)[C@@H](NC(=O)[C@H](CO)NC(=O)[C@H](Cc1c[nH]c2ccccc12)NC(=O)[C@H](CCC(N)=O)NC(=O)[C@H](Cc1c[nH]c2ccccc12)NC(=O)[C@H](CCC(=O)O)NC(=O)CNC(=O)[C@H](CS)NC(=O)[C@H](CC(=O)O)NC(=O)[C@@H](N)CO)C(C)C)C(C)C)[C@@H](C)O)C(=O)NCC(=O)N[C@H](C(=O)N[C@@H](CCCNC(=N)N)C(=O)N[C@@H](CCC(=O)O)C(=O)NCC(=O)N[C@H](C(=O)N[C@@H](CCCNC(=N)N)C(=O)N[C@H](C(=O)O)[C@@H](C)O)[C@@H](C)O)[C@@H](C)O [peptide 13-39] (H-SDCGEWQWSVCVPTSGDCGLGTREGTRT-OH; N-terminus and C-terminus assumed)
effect on angiogenesis when peptide used alone [1]: No significant effect | inhibition of the HARP activity (induction of cell proliferation) [4]: 60% | effect on angiogenesis induced by FGF-2 [2]: no effect | effect on angiogenesis induced by HARP [3]: totally inhibit

KLTKPKPQAESKKKKKEGKKQEKMLD (listed as Homo sapiens) [peptide 111-136, C-terminal peptide fragment of HARP, amino acids 111-136, acts on the ALK receptor]
mitogenic / angiogenic activity [5]: neither mitogenic n or angiogenic | rate of tumour growth, times less than in untreated mice ([6]; PC3 in nude mice): 4 times | mean size of the tumours smaller than in untreated mice ([6]; day 27): 80% | reduction in the intra-tumoral vessels [7]: 55%

B1: HARP: angiogenic heparin binding growth factor, mature protein of 136 or 139 amino acids (protein, UniProt P21246 33-168, looked up)
Pleiotrophin: GKKEKPEKKVKKSDCGEWQWSVCVPTSGDCGLGTREGTRTGAECKQTMKTQRCKIPCNWKKQFGAECKYQFQAWGECDLNTALKTRTGSLKRALHNAECQKTVTISKPCGKLTKPKPQAESKKKKKEGKKQEKMLD
increase in the number of endothelial cells by comparison with Matrigel used by itself [1]: 3 times | Kd [8]: 0.05 nM
